Values quoted from earlier work, collected in patent publication US12569481B2, “Methods of treatment for gastrointestinal motility disorders” (Vanderbilt University, priority 2020, dated 2026).

Columns and labels:
[1] = target: cardiac late sodium current (late INa) (Homo sapiens, UniProt Q14524)
[2] = target: KCNH2-encoded hERG K+ channels (Homo sapiens, UniProt Q12809); conditions: channels found in cardiac muscle and intestinal smooth muscle
[3] = target: T1, sodium current in human colon SMCs (Homo sapiens, UniProt Q14524)
T1 construct: sodium current in human colon SMCs; endogenous in cells; host or cells: human colon smooth muscle cells (SMCs)

[4] = test system: human colon muscle strips
[5] = not given; remark: listed apart in the source
[6] = room temperature; over-encapsulated 500 mg extended release tablets

Chain of cardiac late sodium current (late INa) (Q14524 whole entry): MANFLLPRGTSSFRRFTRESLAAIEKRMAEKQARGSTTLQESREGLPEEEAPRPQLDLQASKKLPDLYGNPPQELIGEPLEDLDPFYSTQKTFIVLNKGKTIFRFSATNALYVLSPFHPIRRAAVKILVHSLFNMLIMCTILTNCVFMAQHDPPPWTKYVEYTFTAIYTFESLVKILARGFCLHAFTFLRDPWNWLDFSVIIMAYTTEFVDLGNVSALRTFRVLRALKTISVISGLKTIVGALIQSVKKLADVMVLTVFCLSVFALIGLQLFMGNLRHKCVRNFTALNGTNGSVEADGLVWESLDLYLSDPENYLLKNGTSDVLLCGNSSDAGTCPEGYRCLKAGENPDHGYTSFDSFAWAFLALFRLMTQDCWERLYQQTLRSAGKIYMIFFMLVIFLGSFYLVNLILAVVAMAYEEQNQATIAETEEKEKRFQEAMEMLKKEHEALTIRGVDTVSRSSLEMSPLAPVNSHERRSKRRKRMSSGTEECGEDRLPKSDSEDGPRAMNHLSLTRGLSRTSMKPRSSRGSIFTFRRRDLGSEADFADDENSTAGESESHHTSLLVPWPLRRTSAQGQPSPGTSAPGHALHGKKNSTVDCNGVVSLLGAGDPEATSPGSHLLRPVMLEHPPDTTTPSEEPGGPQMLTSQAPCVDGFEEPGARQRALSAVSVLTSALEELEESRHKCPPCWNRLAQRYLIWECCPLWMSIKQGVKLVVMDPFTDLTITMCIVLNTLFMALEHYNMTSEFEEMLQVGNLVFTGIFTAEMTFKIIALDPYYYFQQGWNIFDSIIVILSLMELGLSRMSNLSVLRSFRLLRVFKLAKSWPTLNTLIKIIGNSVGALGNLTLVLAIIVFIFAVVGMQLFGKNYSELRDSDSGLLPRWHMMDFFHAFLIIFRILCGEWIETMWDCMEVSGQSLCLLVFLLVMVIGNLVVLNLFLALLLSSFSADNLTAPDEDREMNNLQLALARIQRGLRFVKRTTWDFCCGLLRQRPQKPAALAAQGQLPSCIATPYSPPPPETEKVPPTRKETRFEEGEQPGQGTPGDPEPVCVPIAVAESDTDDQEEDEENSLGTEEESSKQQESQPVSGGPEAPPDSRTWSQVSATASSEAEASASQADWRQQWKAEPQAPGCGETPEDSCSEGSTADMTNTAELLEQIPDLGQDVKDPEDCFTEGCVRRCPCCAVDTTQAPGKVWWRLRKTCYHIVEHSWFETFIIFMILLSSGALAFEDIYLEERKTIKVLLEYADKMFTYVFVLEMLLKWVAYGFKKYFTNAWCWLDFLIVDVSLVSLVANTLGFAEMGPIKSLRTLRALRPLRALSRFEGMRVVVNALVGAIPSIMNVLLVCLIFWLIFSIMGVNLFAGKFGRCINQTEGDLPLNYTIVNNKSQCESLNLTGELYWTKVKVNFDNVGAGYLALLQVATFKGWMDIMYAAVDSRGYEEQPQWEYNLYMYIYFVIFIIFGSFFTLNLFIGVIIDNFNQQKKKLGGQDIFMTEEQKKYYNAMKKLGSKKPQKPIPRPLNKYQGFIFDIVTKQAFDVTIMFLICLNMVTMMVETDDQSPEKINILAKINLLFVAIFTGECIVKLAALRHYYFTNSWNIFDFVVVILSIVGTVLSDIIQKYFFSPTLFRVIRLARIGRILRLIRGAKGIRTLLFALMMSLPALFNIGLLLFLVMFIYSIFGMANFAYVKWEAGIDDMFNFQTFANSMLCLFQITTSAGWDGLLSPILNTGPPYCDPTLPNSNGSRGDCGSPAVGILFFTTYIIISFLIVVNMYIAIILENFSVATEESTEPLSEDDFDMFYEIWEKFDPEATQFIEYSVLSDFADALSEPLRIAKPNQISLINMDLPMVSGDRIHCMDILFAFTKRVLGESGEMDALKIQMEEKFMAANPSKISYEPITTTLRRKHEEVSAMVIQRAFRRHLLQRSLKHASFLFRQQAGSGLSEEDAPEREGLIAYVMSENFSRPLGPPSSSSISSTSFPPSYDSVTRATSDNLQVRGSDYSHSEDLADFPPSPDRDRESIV
Chain of KCNH2-encoded hERG K+ channels (Q12809 whole entry): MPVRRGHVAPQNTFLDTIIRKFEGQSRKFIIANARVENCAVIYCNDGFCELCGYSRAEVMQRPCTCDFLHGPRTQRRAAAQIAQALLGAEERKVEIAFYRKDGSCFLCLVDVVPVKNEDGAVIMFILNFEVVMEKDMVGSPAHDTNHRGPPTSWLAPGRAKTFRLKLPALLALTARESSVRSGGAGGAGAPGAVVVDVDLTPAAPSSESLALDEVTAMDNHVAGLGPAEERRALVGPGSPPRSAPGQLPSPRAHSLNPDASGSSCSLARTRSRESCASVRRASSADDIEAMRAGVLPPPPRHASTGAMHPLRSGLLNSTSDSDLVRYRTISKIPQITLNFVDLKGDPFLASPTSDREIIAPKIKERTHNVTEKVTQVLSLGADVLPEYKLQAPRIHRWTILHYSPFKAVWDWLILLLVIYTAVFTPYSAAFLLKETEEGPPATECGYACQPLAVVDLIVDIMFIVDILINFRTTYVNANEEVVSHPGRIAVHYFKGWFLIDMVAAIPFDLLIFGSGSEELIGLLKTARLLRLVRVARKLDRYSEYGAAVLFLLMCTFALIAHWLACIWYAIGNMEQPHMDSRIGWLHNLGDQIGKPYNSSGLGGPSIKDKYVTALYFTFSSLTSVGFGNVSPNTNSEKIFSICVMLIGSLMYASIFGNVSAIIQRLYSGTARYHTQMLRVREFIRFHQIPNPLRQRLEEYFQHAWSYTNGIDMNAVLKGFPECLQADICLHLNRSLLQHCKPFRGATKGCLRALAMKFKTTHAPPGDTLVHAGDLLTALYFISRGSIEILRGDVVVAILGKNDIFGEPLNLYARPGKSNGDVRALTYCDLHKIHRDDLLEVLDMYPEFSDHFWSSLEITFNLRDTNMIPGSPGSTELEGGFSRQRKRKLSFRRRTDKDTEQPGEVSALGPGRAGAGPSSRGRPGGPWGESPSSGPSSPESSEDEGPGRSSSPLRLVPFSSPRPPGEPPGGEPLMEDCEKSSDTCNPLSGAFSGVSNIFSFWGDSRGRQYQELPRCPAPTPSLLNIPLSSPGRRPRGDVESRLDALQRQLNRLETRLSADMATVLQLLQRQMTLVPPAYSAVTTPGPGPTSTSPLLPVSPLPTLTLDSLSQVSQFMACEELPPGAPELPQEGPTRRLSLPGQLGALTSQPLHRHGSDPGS

selectivity for late INa vs peak INa ([1]; late INa vs peak INa): nine
inhibition of cardiac late sodium current (late INa) ([1]; residual Na+ flowing after peak INa during an action potential): inhibitor
metabolism (cytochrome P-450 3A enzyme (CYP3A) pathway in the liver): rapidly metabolized
half-life (in vivo): seven
ingested ranolazine excreted in the urine (ingested, urine): At least 70%
storage time [6]: up to 12 months
Structure (SMILES): COc1ccccc1OCC(O)CN1CCN(CC(=O)Nc2c(C)cccc2C)CC1 (centres unmarked) [Ranolazine]
block of KCNH2-encoded hERG K+ channels [2]: block
effect on peak amplitude and mechanosensitivity of sodium current [3]: blocks both peak amplitude and mechanosensitivity
effect on contractility [4]: decreases contractility
patients experiencing the most common side effects ([5]; dizziness, nausea, constipation, and headache): less than 2%
safety and tolerability ([5]; used properly and not concurrently with contraindicated drugs): safe and well-tolerated
